Source: ChEMBL document CHEMBL1275296, “Synthesis and antimicrobial studies of thiazolotriazinones” (2010)
Converted amounts (≈) assume the structure as drawn. The source made the active and inactive calls. The rule behind the calls is not given here.

Key:
[1] = test system: Aspergillus flavus; assay: Antifungal activity against Aspergillus flavus by measuring inhibition zone after 48 hrs; format: functional
[2] = test system: Staphylococcus aureus; assay: Antibacterial activity against Staphylococcus aureus after 24 hrs by broth dilution method; format: functional
[3] = test system: Escherichia coli; assay: Antibacterial activity against Escherichia coli after 24 hrs by broth dilution method; format: functional
[4] = test system: Aspergillus flavus; assay: Antifungal activity against Aspergillus flavus after 48 hrs; format: functional
[5] = test system: Trichophyton mentagrophytes; assay: Antifungal activity against Trichophyton mentagrophytes by measuring inhibition zone after 48 hrs; format: functional
[6] = test system: Trichophyton mentagrophytes; assay: Antifungal activity against Trichophyton mentagrophytes after 48 hrs; format: functional
[7] = test system: Talaromyces marneffei; assay: Antifungal activity against Penicillium marneffei by measuring inhibition zone after 48 hrs; format: functional
[8] = test system: Talaromyces marneffei; assay: Antifungal activity against Penicillium marneffei after 48 hrs; format: functional
[9] = test system: Candida albicans; assay: Antifungal activity against Candida albicans by measuring inhibition zone after 48 hrs; format: functional
[10] = test system: Candida albicans; assay: Antifungal activity against Candida albicans after 48 hrs; format: functional
[11] = test system: Aspergillus fumigatus; assay: Antifungal activity against Aspergillus fumigatus by measuring inhibition zone after 48 hrs; format: functional
[12] = test system: Aspergillus fumigatus; assay: Antifungal activity against Aspergillus fumigatus after 48 hrs; format: functional
[13] = test system: Pseudomonas aeruginosa; assay: Antibacterial activity against Pseudomonas aeruginosa after 24 hrs by broth dilution method; format: functional
[14] = test system: Klebsiella pneumoniae; assay: Antibacterial activity against Klebsiella pneumoniae after 24 hrs by broth dilution method; format: functional
[15] = test system: Streptococcus pyogenes; assay: Antibacterial activity against Streptococcus pyogenes after 24 hrs by broth dilution method; format: functional
[16] = test system: Staphylococcus aureus; assay: Antibacterial activity against Staphylococcus aureus after 24 hrs; format: functional
[17] = test system: Escherichia coli; assay: Antibacterial activity against Escherichia coli after 24 hrs; format: functional
[18] = test system: Pseudomonas aeruginosa; assay: Antibacterial activity against Pseudomonas aeruginosa after 24 hrs; format: functional
[19] = test system: Klebsiella pneumoniae; assay: Antibacterial activity against Klebsiella pneumoniae after 24 hrs; format: functional
[20] = test system: Streptococcus pyogenes; assay: Antibacterial activity against Streptococcus pyogenes after 24 hrs; format: functional
[21] = test system: Aspergillus flavus; assay: Antifungal activity against Aspergillus flavus at >100 ug/mL after 48 hrs; format: functional, organism-based
[22] = test system: Pseudomonas aeruginosa; assay: Antibacterial activity against Pseudomonas aeruginosa at >100 ug/mL after 24 hrs by broth dilution method; format: functional, organism-based
[23] = test system: Klebsiella pneumoniae; assay: Antibacterial activity against Klebsiella pneumoniae at >100 ug/mL after 24 hrs by broth dilution method; format: functional, organism-based
[24] = test system: Talaromyces marneffei; assay: Antifungal activity against Penicillium marneffei at >100 ug/mL after 48 hrs; format: functional, organism-based
[25] = test system: Aspergillus fumigatus; assay: Antifungal activity against Aspergillus fumigatus at >100 ug/mL after 48 hrs; format: functional, organism-based
[26] = test system: Escherichia coli; assay: Antibacterial activity against Escherichia coli at >100 ug/mL after 24 hrs by broth dilution method; format: functional, organism-based
[27] = test system: Trichophyton mentagrophytes; assay: Antifungal activity against Trichophyton mentagrophytes at >100 ug/mL after 48 hrs; format: functional, organism-based
[28] = test system: Candida albicans; assay: Antifungal activity against Candida albicans at >100 ug/mL after 48 hrs; format: functional, organism-based

Structure (SMILES)	MIC [2]	MIC [3]	MIC [4]	MIC [6]	MIC [8]	MIC [10]	MIC [12]	MIC [13]	MIC [14]	MIC [15]	inhibition zone (IZ) [1]	inhibition zone (IZ) [5]	inhibition zone (IZ) [7]	inhibition zone (IZ) [9]	inhibition zone (IZ) [11]	inhibition zone (IZ) [16]	inhibition zone (IZ) [17]	inhibition zone (IZ) [18]	inhibition zone (IZ) [19]	inhibition zone (IZ) [20]	also measured
O=c1c(Cc2ccc(Cl)cc2)nnc2scc(-c3cc(F)c(Cl)cc3Cl)n12	6.25 µg/mL (≈ 14.2 µM)	6.25 µg/mL (≈ 14.2 µM)	6.25 µg/mL (≈ 14.2 µM)	6.25 µg/mL (≈ 14.2 µM)	6.25 µg/mL (≈ 14.2 µM)	6.25 µg/mL (≈ 14.2 µM)	6.25 µg/mL (≈ 14.2 µM)	6.25 µg/mL (≈ 14.2 µM)	6.25 µg/mL (≈ 14.2 µM)	6.25 µg/mL (≈ 14.2 µM)	18 mm	21 mm	25 mm	17 mm	25 mm	21 mm	27 mm	29 mm	18 mm	24 mm	
C[C@@H]1[C@H](O)[C@@H](C)/C=C/C=C/C=C/C=C/C=C/C=C/C=C/[C@H](O[C@@H]2O[C@H](C)[C@@H](O)[C@H](N)[C@@H]2O)C[C@@H]2O[C@](O)(C[C@@H](O)C[C@@H](O)[C@H](O)CC[C@@H](O)C[C@@H](O)CC(=O)O[C@H]1C)C[C@H](O)[C@H]2C(=O)O [AMPHOTERICIN B]			6.25 µg/mL (≈ 6.76 µM)	6.25 µg/mL (≈ 6.76 µM)	6.25 µg/mL (≈ 6.76 µM)	6.25 µg/mL (≈ 6.76 µM)	6.25 µg/mL (≈ 6.76 µM)				21 mm	23 mm	25 mm	19 mm	25 mm						
O=C(O)c1cn(C2CC2)c2cc(N3CCNCC3)c(F)cc2c1=O [CIPROFLOXACIN]									6.25 µg/mL (≈ 18.9 µM)	6.25 µg/mL (≈ 18.9 µM)						23 mm	30 mm	33 mm	22 mm	25 mm	
COc1ccc(-c2csc3nnc(Cc4ccc(Cl)cc4Cl)c(=O)n23)cc1	12.5 µg/mL (≈ 29.9 µM)	6.25 µg/mL (≈ 14.9 µM)		6.25 µg/mL (≈ 14.9 µM)	25 µg/mL (≈ 59.8 µM)	6.25 µg/mL (≈ 14.9 µM)	6.25 µg/mL (≈ 14.9 µM)			25 µg/mL (≈ 59.8 µM)		17 mm	9 mm	17 mm	20 mm	12 mm	22 mm			8 mm	inhibition [21]: inactive; inhibition [22]: inactive; inhibition [23]: inactive
O=c1c(Cc2ccc(Cl)cc2Cl)nnc2scc(-c3ccc(Cl)cc3)n12	6.25 µg/mL (≈ 14.8 µM)	6.25 µg/mL (≈ 14.8 µM)	6.25 µg/mL (≈ 14.8 µM)	6.25 µg/mL (≈ 14.8 µM)	6.25 µg/mL (≈ 14.8 µM)	6.25 µg/mL (≈ 14.8 µM)	6.25 µg/mL (≈ 14.8 µM)	6.25 µg/mL (≈ 14.8 µM)	6.25 µg/mL (≈ 14.8 µM)	6.25 µg/mL (≈ 14.8 µM)	21 mm	21 mm	23 mm	18 mm	24 mm	21 mm	29 mm	32 mm	19 mm	23 mm	
O=c1c(Cc2ccc(Cl)cc2)nnc2scc(-c3ccc(Cl)cc3)n12	6.25 µg/mL (≈ 16.1 µM)	6.25 µg/mL (≈ 16.1 µM)	6.25 µg/mL (≈ 16.1 µM)	6.25 µg/mL (≈ 16.1 µM)	6.25 µg/mL (≈ 16.1 µM)	6.25 µg/mL (≈ 16.1 µM)	6.25 µg/mL (≈ 16.1 µM)	6.25 µg/mL (≈ 16.1 µM)	6.25 µg/mL (≈ 16.1 µM)	6.25 µg/mL (≈ 16.1 µM)	22 mm	25 mm	22 mm	20 mm	22 mm	23 mm	26 mm	33 mm	20 mm	23 mm	
COc1ccc(-c2csc3nnc(Cc4ccc(Cl)cc4)c(=O)n23)cc1	12.5 µg/mL (≈ 32.6 µM)		6.25 µg/mL (≈ 16.3 µM)	12.5 µg/mL (≈ 32.6 µM)	25 µg/mL (≈ 65.1 µM)	12.5 µg/mL (≈ 32.6 µM)		12.5 µg/mL (≈ 32.6 µM)	6.25 µg/mL (≈ 16.3 µM)	25 µg/mL (≈ 65.1 µM)	19 mm	14 mm	9 mm	11 mm		12 mm		14 mm	19 mm	10 mm	inhibition [25]: inactive; inhibition [26]: inactive
O=c1c(Cc2ccc(Cl)cc2Cl)nnc2scc(-c3ccc([N+](=O)[O-])cc3)n12	6.25 µg/mL (≈ 14.4 µM)	12.5 µg/mL (≈ 28.8 µM)	12.5 µg/mL (≈ 28.8 µM)		12.5 µg/mL (≈ 28.8 µM)			6.25 µg/mL (≈ 14.4 µM)		6.25 µg/mL (≈ 14.4 µM)	14 mm		10 mm			20 mm	15 mm	27 mm		17 mm	inhibition [27]: inactive; inhibition [28]: inactive; inhibition [25]: inactive; inhibition [23]: inactive

Continued by falling MIC [2], values first:

MIC [2]	MIC [3]	MIC [4]	MIC [6]	MIC [8]	MIC [10]	MIC [12]	MIC [13]	MIC [14]	MIC [15]	Structure (SMILES)	inhibition zone (IZ) [1]	inhibition zone (IZ) [5]	inhibition zone (IZ) [7]	inhibition zone (IZ) [9]	inhibition zone (IZ) [11]	inhibition zone (IZ) [16]	inhibition zone (IZ) [17]	inhibition zone (IZ) [18]	inhibition zone (IZ) [19]	inhibition zone (IZ) [20]	also measured
25 µg/mL (≈ 62.7 µM)	6.25 µg/mL (≈ 15.7 µM)		25 µg/mL (≈ 62.7 µM)	6.25 µg/mL (≈ 15.7 µM)	6.25 µg/mL (≈ 15.7 µM)	6.25 µg/mL (≈ 15.7 µM)	25 µg/mL (≈ 62.7 µM)		25 µg/mL (≈ 62.7 µM)	O=c1c(Cc2ccc(Cl)cc2)nnc2scc(-c3ccc([N+](=O)[O-])cc3)n12		7 mm	21 mm	18 mm	15 mm	9 mm	25 mm	8 mm		9 mm	inhibition [21]: inactive; inhibition [23]: inactive
6.25 µg/mL (≈ 14.4 µM)	25 µg/mL (≈ 57.8 µM)		12.5 µg/mL (≈ 28.9 µM)		6.25 µg/mL (≈ 14.4 µM)	25 µg/mL (≈ 57.8 µM)	12.5 µg/mL (≈ 28.9 µM)	6.25 µg/mL (≈ 14.4 µM)	6.25 µg/mL (≈ 14.4 µM)	O=c1c(Cc2ccc(Cl)cc2)nnc2scc(-c3ccc(Br)cc3)n12		12 mm		17 mm	8 mm	23 mm	9 mm	14 mm	19 mm	21 mm	inhibition [21]: inactive; inhibition [24]: inactive
6.25 µg/mL (≈ 13.2 µM)	6.25 µg/mL (≈ 13.2 µM)	6.25 µg/mL (≈ 13.2 µM)	6.25 µg/mL (≈ 13.2 µM)	6.25 µg/mL (≈ 13.2 µM)	6.25 µg/mL (≈ 13.2 µM)	6.25 µg/mL (≈ 13.2 µM)	6.25 µg/mL (≈ 13.2 µM)	6.25 µg/mL (≈ 13.2 µM)	6.25 µg/mL (≈ 13.2 µM)	O=c1c(Cc2ccc(Cl)cc2Cl)nnc2scc(-c3cc(F)c(Cl)cc3Cl)n12	21 mm	22 mm	25 mm	20 mm	24 mm	21 mm	29 mm	31 mm	19 mm	24 mm	
6.25 µg/mL (≈ 13.4 µM)	6.25 µg/mL (≈ 13.4 µM)	6.25 µg/mL (≈ 13.4 µM)	12.5 µg/mL (≈ 26.8 µM)		25 µg/mL (≈ 53.5 µM)	12.5 µg/mL (≈ 26.8 µM)	6.25 µg/mL (≈ 13.4 µM)	6.25 µg/mL (≈ 13.4 µM)	6.25 µg/mL (≈ 13.4 µM)	O=c1c(Cc2ccc(Cl)cc2Cl)nnc2scc(-c3ccc(Br)cc3)n12	16 mm	11 mm		7 mm	12 mm	21 mm	26 mm	29 mm	18 mm	20 mm	inhibition [24]: inactive
